Where two headings read alike, the source gives them in different places.
How the values were obtained:
NCI-H69 cells [1] = experiment: FACS-based (DRAQ7) viability assay; type: cell-based, human
Protocol: […] Etoposide, SB203580 and MK2.III were all dissolved in 0.2% of DMSO before use. Cells treated only with the carrier molecule DMSO (0.2%) served as a control.
Viability analysis was performed by staining with the […], stoichiometric DNA stain DRAQ7 (640 or 633 nm excitation and 670 nm emission; Biostatus Limited). After 48-h treatment with DNA damaging agents and/or inhibitors, cells were washed once with RPMI 1640 and resuspended in 1 ml culture media at a concentration of less than 5 × 10^5/ ml. Cells were stained with 20 µM of DRAQ7 and incubated at 37 °C for 10 min before FACS Calibur cytometer analysis. Fluorescent signals were amplified using linear mode. Cell cycle analysis was performed either by staining DRAQ7 or Propidium Iodide (PI). Cells were stained with 20 µM of DRAQ7 and incubated at 37 °C for 10 min before analysis on a FACSCalibur cytometer. Propidium Iodide (PI, excited with 488 nm laser, collected with 585/52 bandpass filter) was used in the large-scale experiments. Samples were then fixed with 70% EtOH following the viability assay and stored at 4 °C overnight before the experiment. After fixation with 70% EtOH (added drop-wise) for 24 h, samples were centrifuged into the pellet and then washed twice with ice-cold PBS. The supernatant was discarded and pellets were resuspended in 100 µl of RNase A (100 µg/ml) and 400 µl of PI ([…] in PBS). Analysis of flow cytometry data was performed using FlowJo software. Untreated, unstained cells were used as a negative control to determine the location of viable cells on the dot plots. Events below a threshold size were interpreted as cellular debris and were removed from the dataset, leaving a whole cell population.

NCI-H69 xenograft = experiment: Tumor (xenograft) suppression with combination chemotherapy in SCID mice; type: in vivo; settings: for Tumor Volume (mm^3) median (25th and 75th quartile): VP-16 12 mg/kg
Protocol: To establish the most suitable xenograft model for the main experiment we used two mouse lines – BALB/c Nude and SCID (both female, 6 weeks, n = 20, Charles River). Both mouse lines were injected with NCI-H69 cancer cells (xenograft). Before injection, cells were grown at 37 °C in RPMI-1640 medium containing 10% FBS and pen/strep. Cells were mixed with Matrigel (1:1) and depending on the group 5 × 10^6 or 10 × 10^6 cells were injected into a mouse subcutaneously along the spine to the level of the left scapula. Mice were divided into 4 groups: (1) 5 × 10^6 NCI-H69 SCID (n = 5); (2) 5 × 10^6 NCI-H69 Nude (n = 5); (3) 10 × 10^6 NCI-H69 SCID (n = 5); and (4) 10 × 10^6 NCI-H69 Nude (n = 5).
The main experiment (injection of the drugs) took place after the tumor growth was established. The tumor growth in mice following the injection of cells was monitored twice a week and upon reaching the volume of ~ 100 mm^3, animals were randomized into 5 groups (12 female SCID mice in each group). The drug treatment was performed as follows: the first group was a control and received a placebo in the form of PBS (tumor volume 95 ± 38 mm^3); the second group received 12 mg/kg of Etoposide (tumor volume 101 ± 51 mm^3); the third group was injected with 4 mg/kg of MK2.III (tumor volume 105 ± 44 mm^3); fourth and fifth groups were injected with 12 mg/kg of Etoposide and 4 mg/kg or 2 mg/kg of MK2.III (tumor volumes 112 ± 57 and 107 ± 49 mm^3 respectively). Drugs were injected intraperitoneally daily. Etoposide was injected 3 days after the randomization into groups and MK2.III was administered for 28 days. Tumor growth/suppression was measured using calipers every 3–4 days for the duration of the 28-day treatment and the tumor volume was calculated as follows:[…],
Antitumor properties of drugs in the test group were determined based on the slowing of the tumor growth or tumor volume compared with the control group receiving PBS. Animal welfare was monitored throughout the study period to ensure that animals in distress were euthanized by carbon dioxide asphyxiation. All the animals were also euthanized by carbon dioxide asphyxiation following the completion of the study.
Descriptive statistics were used to summarize the tumor size and data reported as medians and 25th and 75th quartiles. Wilcoxon sum rank test was used to investigate the effects of the treatments on tumor growth. […] Statistical analyses were performed on the SigmaPlot 11.0 software.

[2] = system: MDA-MB-231 breast cancer cell line; experiment: CCK8 cell viability assay, MDA-MB-231; type: cell-based, human; settings: MK2.III 1 µM or etoposide 150 µM alone, 24 h
Protocol: (§1) To assess the effect of MK2.III kinase inhibitor and the etoposide (VP-16) on the viability of different cancer cell lines, cells were seeded in 96-well plates in a concentration of 5000 cells per well. After 12 h, etoposide and 1 μM MK2.III diluted in culture media were added into the wells for 24 h. NCI-H69 cells were exposed to a series of etoposide concentrations from 20 μM to 150 μM. MDA-MB-231, SW 620, and SW 480 cell lines were incubated with 150 μM etoposide. After treatment, 10 μL of the CCK-8 reagent (96992, Sigma) was added to each well for 1 h followed by optical density measurement at 450 nm using hybrid plate reader Synergy H1.

NCI-H69 cells [3] = experiment: FACS-based cell cycle analysis; parameters: species or system human; settings: single treatment, increasing dose
Protocol: The cells were grown in 12 well plates (Scientific Laboratory Supplies Limited, UK) in RPMI 1640 (Gibco, UK) supplemented with 10% FBS (Autogen Bioclear, UK) and 10,000 U/ml penicillin and 10 mg/ml streptomycin (Sigma, UK) at 37 °C under 5% CO2 and treated with 10, 20, 50, 100 and 150 µM of DNA damaging agent etoposide (VP-16) (Sigma, UK) in the presence or absence of p38MAPK inhibitor SB203580 (Tocris Chemical Co., UK) or MK2 inhibitor MK2.III (Merck, UK) in concentrations of 0, 0.3125, 0.625, 1.25, 2.5, and 5.0 µM. Etoposide, SB203580 and MK2.III were all dissolved in 0.2% of DMSO before use. Cells treated only with the carrier molecule DMSO (0.2%) served as a control.
Viability analysis was performed by staining with the […], stoichiometric DNA stain DRAQ7 (640 or 633 nm excitation and 670 nm emission; Biostatus Limited). After 48-h treatment with DNA damaging agents and/or inhibitors, cells were washed once with RPMI 1640 and resuspended in 1 ml culture media at a concentration of less than 5 × 10^5/ ml. Cells were stained with 20 µM of DRAQ7 and incubated at 37 °C for 10 min before FACS Calibur cytometer analysis. Fluorescent signals were amplified using linear mode. Cell cycle analysis was performed either by staining DRAQ7 or Propidium Iodide (PI). Cells were stained with 20 µM of DRAQ7 and incubated at 37 °C for 10 min before analysis on a FACSCalibur cytometer. […]

[4] = system: SW480 colorectal cancer cell line; experiment: CCK8 cell viability assay, SW480; type: cell-based, human; settings: etoposide 150 µM alone, 24 h
Protocol: as §1

[5] = system: SW620 colorectal cancer cell line; experiment: CCK8 cell viability assay, SW620; type: cell-based, human; settings: MK2.III 1 µM or etoposide 150 µM alone, 24 h
Protocol: as §1

NCI-H69 cells [6] = experiment: CCK8-based cell viability assay, NCI-H69; parameters: species or system human; settings: 24 h
Protocol: as §1

Work on C[S+]([O-])c1ccc(-c2nc(-c3ccncc3)c(-c3ccc(F)cc3)[nH]2)cc1 (stereo not shown) [SB203580] yielded a viability at 0.321 µM (NCI-H69 cells [1]; Homo sapiens, NCI-H69, Table 1 dose response, agent alone 0.321 µM (lowest dose), 48 h, read-out: Viable cells (%)) of 89%, a viability at 0.626 µM (NCI-H69 cells [1]; Homo sapiens, NCI-H69, Table 1 dose response, agent alone 0.626 µM, 48 h, read-out: Viable cells (%)) of 89.8% and a viability at 1.25 µM (NCI-H69 cells [1]; Homo sapiens, NCI-H69, Table 1 dose response, agent alone 1.25 µM, 48 h, read-out: Viable cells (%)) of 89%. For the same compound, the viability at 2.5 µM (NCI-H69 cells [1]; Homo sapiens, NCI-H69, Table 1 dose response, agent alone 2.5 µM, 48 h, read-out: Viable cells (%)) was 89.4%, the viability at 5 µM (NCI-H69 cells [1]; Homo sapiens, NCI-H69, Table 1 dose response, agent alone 5.0 µM (highest dose), 48 h, read-out: Viable cells (%)) was 85.1% and the “Effect on NCI-H69 cell viability compared to the DMSO control” value (NCI-H69 cells [1]; inhibitor alone at 2.5 µM) was “did not affect”.
COc1cc([C@@H]2c3cc4c(cc3[C@@H](O[C@@H]3O[C@@H]5CO[C@@H](C)O[C@H]5[C@H](O)[C@H]3O)[C@H]3COC(=O)[C@H]23)OCO4)cc(OC)c1O [VP-16 (Etoposide), etoposide] was tested, and the “Difference in tumor size versus control” value (NCI-H69 xenograft; at any checkpoint, etoposide 12 mg/kg, MK2.III 4 mg/kg, or etoposide + MK2.III 2 mg/kg) was “no significant difference”, the “Tumor Volume (mm^3) median (25th and 75th quartile)” value (“Tumor Volume (mm^3) median” below) (NCI-H69 xenograft; day 11 upon treatment, MK2.III 4 mg/kg IP daily) was 556(360;839) mm^3 and the “Tumor Volume (mm^3) median” value (NCI-H69 xenograft; day 18 upon treatment, MK2.III 4 mg/kg IP daily) was 1219 (995;1387)^*** mm^3. For the same compound, the “Tumor Volume (mm^3) median” value (NCI-H69 xenograft; day -1 upon treatment (baseline), MK2.III 4 mg/kg IP) was 93.5 (66;125) mm^3, the “Effect of single agent on viability” value [2] was “did not affect the viability” and the “Effect on cell cycle profile, single agent” value (NCI-H69 cells [3]) was “G2 cell cycle arrest”. The “Decrease of viability by single agent” value [4] was 65%, the viability at 10 µM (NCI-H69 cells [1]; Homo sapiens, NCI-H69, Table 1 dose response, agent alone 10 µM, 48 h, read-out: Viable cells (%)) was 75.7% and the viability at 20 µM (NCI-H69 cells [1]; Homo sapiens, NCI-H69, Table 1 dose response, agent alone 20 µM, 48 h, read-out: Viable cells (%)) was 76.8%. The viability at 50 µM (NCI-H69 cells [1]; Homo sapiens, NCI-H69, Table 1 dose response, agent alone 50 µM, 48 h, read-out: Viable cells (%)) was 65.2%, the viability at 100 µM (NCI-H69 cells [1]; Homo sapiens, NCI-H69, Table 1 dose response, agent alone 100 µM, 48 h, read-out: Viable cells (%)) was 61.3% and the viability at 150 µM (NCI-H69 cells [1]; Homo sapiens, NCI-H69, Table 1 dose response, agent alone 150 µM, 48 h, read-out: Viable cells (%)) was 55.4%. The viability at 20 µM (NCI-H69 cells [1]; Homo sapiens, NCI-H69, Table 2, VP-16 20 µM, alone or with MK2.III 1.0 µM or SB203580 2.5 µM, read-out: Viable cells (%)) was 57.3%, the viability at 50 µM (NCI-H69 cells [1]; Homo sapiens, NCI-H69, Table 2, VP-16 50 µM, alone or with MK2.III 1.0 µM or SB203580 2.5 µM, read-out: Viable cells (%)) was 46.4% and the viability at 100 µM (NCI-H69 cells [1]; Homo sapiens, NCI-H69, Table 2, VP-16 100 µM, alone or with MK2.III 1.0 µM or SB203580 2.5 µM, read-out: Viable cells (%)) was 45.4%. For the same compound, the viability at 150 µM (NCI-H69 cells [1]; Homo sapiens, NCI-H69, Table 2, VP-16 150 µM, alone or with MK2.III 1.0 µM or SB203580 2.5 µM, read-out: Viable cells (%)) was 37.5%, the “Decrease of viability by single agent” value [5] was 50% and the “Percentage of surviving cells” value (NCI-H69 cells [6]; etoposide 20 µM) was 72%. The “Percentage of surviving cells” value (NCI-H69 cells [6]; etoposide 150 µM) was 36%.
